Patent US20250163038A1, “CBL-B MODULATORS AND USES THEREOF” (Nimbus Clio, Inc., priority 2021, published 2025)

Assays:
[1] = target: Recombinant human Cbl-b (aa 36-427) (Homo sapiens, UniProt Q13191); test: Cbl-b Biochemical Assay (TR-FRET); settings: read-out: TR-FRET hCbl-b IC50
[2] = target: T1, Recombinant human c-Cbl (aa 47-435) (Homo sapiens, UniProt P22681); test: c-Cbl Biochemical Assay (TR-FRET); settings: hc-Cbl Biochemical Assay (TR-FRET); read-out: TR-FRET hcCbl IC50
T1 sequence (P22681 47-435): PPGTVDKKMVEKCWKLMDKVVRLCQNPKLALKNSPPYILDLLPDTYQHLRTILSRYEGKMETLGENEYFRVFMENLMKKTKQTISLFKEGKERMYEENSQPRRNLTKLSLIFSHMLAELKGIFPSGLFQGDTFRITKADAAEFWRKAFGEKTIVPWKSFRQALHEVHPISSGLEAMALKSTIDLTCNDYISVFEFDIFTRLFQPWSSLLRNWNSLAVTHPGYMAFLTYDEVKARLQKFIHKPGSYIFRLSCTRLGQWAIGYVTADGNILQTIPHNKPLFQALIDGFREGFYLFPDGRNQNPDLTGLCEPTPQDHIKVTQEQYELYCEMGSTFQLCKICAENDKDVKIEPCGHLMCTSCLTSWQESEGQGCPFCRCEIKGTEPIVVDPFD

[3] = system: Jurkat (clone E6-1) cells with NFAT luciferase reporter; test: Jurkat reporter assay (NFAT Luciferase); format: cell-based; settings: Homo sapiens; Jurkat NFAT luciferase reporter cells, anti-CD3 stimulation, 6 hr; read-out: Jurkat NFAT EC50

Recombinant human Cbl-b (aa 36-427), sequence (Q13191 36-427): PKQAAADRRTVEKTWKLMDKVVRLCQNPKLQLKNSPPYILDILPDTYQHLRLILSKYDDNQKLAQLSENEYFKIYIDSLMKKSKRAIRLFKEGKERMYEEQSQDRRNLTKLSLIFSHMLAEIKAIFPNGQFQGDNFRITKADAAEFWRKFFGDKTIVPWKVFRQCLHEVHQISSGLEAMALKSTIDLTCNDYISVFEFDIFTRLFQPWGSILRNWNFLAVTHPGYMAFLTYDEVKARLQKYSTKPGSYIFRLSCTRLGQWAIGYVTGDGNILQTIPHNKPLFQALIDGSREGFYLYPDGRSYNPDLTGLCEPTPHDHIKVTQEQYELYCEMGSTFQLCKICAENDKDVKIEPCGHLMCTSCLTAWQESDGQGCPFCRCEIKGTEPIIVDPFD

SMILES | IC50 [1] [nM] | IC50 [2] [nM] | EC50 [3] [nM]
C[C@H](O)CNCc1cc(F)c2oc(-c3cccc(-c4ccc(F)cc4-c4nncn4C)c3)nc2c1 [JP-1, (S)-1-(((7-Fluoro-2-(4′-fluoro-2′-(4-methyl-4H-1,2,4-triazol-3-yl)-[1,1′-biphenyl]-3-yl)benzo[d]oxazol-5-yl)methyl)amino)propan-2-ol] | < 200 | < 200 | < 200
Cn1cnnc1-c1cc(F)ccc1-c1cc(-c2nc3cc(CNCC(C)(C)O)cc(F)c3o2)cc(C2CC2)c1 [JQ-1, 1-(((2-(5-Cyclopropyl-4′-fluoro-2′-(4-methyl-4H-1,2,4-triazol-3-yl)-[1,1′-biphenyl]-3-yl)-7-fluorobenzo[d]oxazol-5-yl)methyl)amino)-2-methylpropan-2-ol] | < 200 | < 200 | < 200
CO[C@@H]1CCCN(Cc2cc(C(F)(F)F)c3oc(-c4cccc(-c5ccc(F)cc5-c5nncn5C)c4)nc3c2)C1 [JR-2, (R)-2-(4′-Fluoro-2′-(4-methyl-4H-1,2,4-triazol-3-yl)-[1,1′-biphenyl]-3-yl)-5-((3-methoxypiperidin-1-yl)methyl)-7-(trifluoromethyl)benzo[d]oxazole] | < 200 | 200 to 1000 | 200 to 1000
Cn1cnnc1-c1cc(F)ccc1-c1cc(-c2nc3cc(CNCC4(O)CCC4)cc(C(F)(F)F)c3o2)cc(C2CC2)c1 [JS-1, 1-((((2-(5-Cyclopropyl-4′-fluoro-2′-(4-methyl-4H-1,2,4-triazol-3-yl)-[1,1′-biphenyl]-3-yl)-7-(trifluoromethyl)benzo[d]oxazol-5-yl)methyl)amino)methyl)cyclobutan-1-ol] | < 200 | < 200 | < 200
COCCNCc1cc(C(F)(F)F)c2oc(-c3cc(-c4ccc(F)cc4-c4nncn4C)cc(C4CC4)c3)nc2c1 [JT-1, N-((2-(5-Cyclopropyl-4′-fluoro-2′-(4-methyl-4H-1,2,4-triazol-3-yl)-[1,1′-biphenyl]-3-yl)-7-(trifluoromethyl)benzo[d]oxazol-5-yl)methyl)-2-methoxyethan-1-amine] | < 200 | < 200 | < 200
Cn1cnnc1-c1cc(F)ccc1-c1cc(-c2nc3cc(CNCC4CCC4)cc(C(F)(F)F)c3o2)cc(C2CC2)c1 [JU-1, 1-Cyclobutyl-N-((2-(5-cyclopropyl-4′-fluoro-2′-(4-methyl-4H-1,2,4-triazol-3-yl)-[1,1′-biphenyl]-3-yl)-7-(trifluoromethyl)benzo[d]oxazol-5-yl)methyl)methanamine] | < 200 | < 200 | < 200
